Measurements: patent US6468998B1, “Pyrrolidine compounds and medicinal utilization thereof” (Mitsubishi Pharma Corporation, priority 1998, dated 2002)
pIC50: −log10 of the molar value. One block for each molecule: values may come before it.

Columns and labels:
[1] = system: rat intermittent claudication model; assay: Effect on rat intermittent claudication model (femoral artery ligation, treadmill walking distance); format: in vivo; conditions: for walking distance 8 days after administration (Δm): 100 mg/kg oral twice a day, change vs value before ligation, mean±SE; for walking distance at day 8 of ligation (in words): control compounds, 100 mg/kg per Table 2
Description: Effect on Rat Intermittent Claudication Model
Rat was anesthetized and the right thigh was opened to expose femoral artery, which was ligated with a silk thread at a position nearest possible to the heart (upstream). In addition, a position about 1 cm from the ligation site to the periphery was ligated with a silk thread, making two ligature sites. Starting from the next day of preparation of a model to day 8 therefrom, a drug was orally administered twice a day for 8 days. However, the drug was orally administered only in the evening of the first day of administration and only in the morning of the final administration day. The walking distance was measured one day before model preparation (initial value), day 1, day 5 and day 8 with a treadmill apparatus. Using a gait test table without an angle of inclination, the conveyor advance speed was first set to 15 m/min, and the speed was increased every 5 min by 5 m/min until the animal failed walking three times, based on which the walking distance of the rat was measured. In the same manner as above, a comparative experiment was performed using sarpogrelate and cilostazol, respectively as a control compound.
In the Table, the values are mean±standard error (n=8 but n=6 only for sarpogrelate group).

[2] = system: platelet rich plasma (PRP); assay: Platelet aggregation suppressive action (collagen + 5-HT, platelet rich plasma); format: cell-based, Japanese white rabbit; conditions: Oryctolagus cuniculus, rabbit PRP, collagen + 3 μM 5-HT
Experimental: Platelet Aggregation Suppressive Action
Preparation of platelet rich plasma and a platelet aggregation test were performed according to the method of Born, G. V. R. et al. [Journal of Physiology, Vol. 168, p. 178 (1963)] as in the following. Blood was drawn from the carotid of male Japanese white rabbit with local anesthesia with xylocaine, using a syringe previously added with 3.8% sodium citrate in a 1/10 amount of the blood. This blood was centrifuged at 1000 round/min for 10 min at room temperature to give a platelet rich plasma (PRP) supernatant. This supernatant was further centrifuged at 3000 round/min for 10 min to give a platelet poor plasma (PPP) supernatant. Taking the measurement values of PRP and PPP as 0% aggregation and 100% aggregation, respectively, the platelet aggregation rate (%) was calculated. A test compound (3 μl) was added to 300 μl of PRP and the mixture was incubated at 37° C. for 5 min. Thereto were added, as aggregation inducing substances, collagen at a concentration prohibitive on aggregation by its single administration, and the final concentration of 3 μM of 5-HT, and the aggregation reaction was recorded for 7 min. The effect of the test compound was determined as percent suppression relative to the control group, using the maximum aggregation as an index. The 50% inhibition concentration (IC50) of the test compound was calculated by the nonlinear regression. In the same manner as above, a comparative experiment was conducted for the use of sarpogrelate and cilostazol, respectively as a control compound.

[3] = Effect on heart rate and blood pressure; format: in vivo, Wistar rat
Experimental: Effect on Heart Rate and Blood Pressure
A catheter was placed in the femoral artery of Wistar rat, and the blood pressure and heart rate were invasively monitored under no anesthesia or restriction. At 1 hour from the oral administration of the test drug, blood pressure and heart rate were taken. In the same manner as above, a comparative experiment was performed using cilostazol as a control compound.
In the Table, the values are mean±standard error (n=4).

[4] = system: collateral circulation model; assay: Promotion of collateral circulation (femoral artery ligation, ADP-added platelet suspension, leg blood flow); format: in vivo, rat
Experimental: Promotion of Collateral Circulation
A collateral circulation model was prepared by rat femoral artery ligation, and a test drug was orally administered 7 days later. At 1 hour from the test drug administration, ADP-added platelet suspension (200 μM) was administered under anesthesia into the femoral artery (1 mL/kg), and changes in the leg blood flow were measured. In the same manner as above, a comparative experiment was performed using cilostazol as a control compound.
(§1) In the Table, the values are mean±standard error (n=6).

[5] = system: lauric acid-induced peripheral arterial obstruction model; assay: Rat lauric acid-induced peripheral arterial obstruction model (therapeutic effect); format: in vivo, Wistar rats
Experimental: (§2) Effect on Rat Lauric Acid-induced Peripheral Arterial Obstruction Model (Therapeutic Effect) Under anesthesia, lauric acid (0.75 mg/0.15 mL) was injected into the right femoral artery of Wistar rats (6-8 weeks of age). A drug was administered one day after the lauric acid injection. The drug was orally administered twice a day for 7 days. In the same manner as above, a comparative experiment was performed using sarpogrelate and cilostazol as a control compound. In the Table, the values are mean±standard error (n=11).

[6] = system: lauric acid-induced peripheral arterial obstruction model; assay: Lauric acid-induced peripheral arterial obstruction model (preventive effect); format: in vivo, Wistar rats
Experimental: as §2, with “on” for “on Rat”, “Model (Preventive” for “Model (Therapeutic”, “administered 1 hour before” for “administered one day after”, “for 8” for “for 7”, “using” for “using sarpogrelate and”, “error (n=12).” for “error (n=11).”

erythrocytes = assay: Improvement effect of erythrocyte deformation (Nuclepore membrane filter method); format: in vivo, SHRSP (stroke prone spontaneously hypertensive rat); conditions: SHRSP
Experimental: Improvement Effect of Erythrocyte Deformation
Blood was drawn under anesthesia from SHRSP (stroke prone spontaneously hypertensive rat) loaded with 1% saline for 3 weeks, and the time necessary for 0.5 mL of blood to pass through a filter (pore size 5 μm, Nuclepore) was measured by the Nuclepore membrane filter method of Reid et al., based on which the volume (mL/min) of the erythrocytes passed was calculated. The volume of the erythrocytes passed was taken as an index of erythrocyte deformation. A drug was orally administered 1 hour before drawing the blood. In the same manner as above, a comparative experiment was performed using sarpogrelate as a control compound.
as §1

5-HT2 receptor = biological target: T1, 5-HT2 receptor (Rattus norvegicus, UniProt P14842); assay: Affinity for 5-HT2 receptor (binding with 3H-ketanserine); conditions: rat cerebral cortex crude synapse membrane, 37° C. 20 min
T1 construct: A crude synapse membrane was prepared from a freeze-dried rat cerebral cortex; from tissue; host or cells: rat cerebral cortex (crude synaptic membrane)
Experimental: Affinity for 5-HT2 Receptor (Binding with ^3H-ketanserine)
Preparation of a crude synapse membrane and a binding test were performed according to the method of Leysen J. E. et al. [Molecular Pharmacology, Vol. 21, p. 301 (1982)]. A crude synapse membrane was prepared from a freeze-dried rat cerebral cortex, and the membrane specimen and ^3H-ketanserine were incubated in the presence of a test compound at 37° C. for 20 min. After the completion of the reaction, the reaction mixture was immediately filtered by suction on a Whatmann GF/B filter (trademark), and the radioactivity on the filter was measured on a liquid scintillation counter. The amount of non-specific binding was measured in the presence of 10 μM mianserin. The 50% inhibition concentration (IC50) of the test compound was calculated by the nonlinear regression. In the same manner as above, a comparative test was performed using sarpogrelate as a control compound.

[7] = 100 mg/kg oral, 1 hour, no anesthesia or restriction
[8] = 100 mg/kg oral, 1 hour, after ADP-added platelet suspension
[9] = 100 mg/kg oral twice a day from one day after lauric acid, score 0 normal to 6
[10] = 100 mg/kg oral twice a day, first dose 1 h before lauric acid, score 0 normal to 6

T1 sequence (P14842 whole entry): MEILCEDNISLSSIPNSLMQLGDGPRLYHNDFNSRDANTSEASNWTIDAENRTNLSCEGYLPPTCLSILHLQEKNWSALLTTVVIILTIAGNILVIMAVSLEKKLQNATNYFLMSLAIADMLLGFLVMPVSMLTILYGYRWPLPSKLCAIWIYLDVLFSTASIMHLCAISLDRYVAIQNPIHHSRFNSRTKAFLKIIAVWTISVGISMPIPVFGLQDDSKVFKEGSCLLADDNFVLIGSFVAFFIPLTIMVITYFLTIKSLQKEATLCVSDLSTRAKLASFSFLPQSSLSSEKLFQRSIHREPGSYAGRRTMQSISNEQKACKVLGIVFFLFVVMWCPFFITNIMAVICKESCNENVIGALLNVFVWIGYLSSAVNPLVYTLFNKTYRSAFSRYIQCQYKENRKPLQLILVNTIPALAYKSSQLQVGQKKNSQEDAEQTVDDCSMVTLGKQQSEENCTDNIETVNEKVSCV

Compound: O=C1CCc2cc(OCCCCc3nnnn3C3CCCCC3)ccc2N1 [Cilostazol, reference compound]
walking distance 8 days after administration (Δm) [1]: −149.8 ± 22.7 m | walking distance at day 8 of ligation (in words) [1]: increased the walking distance but the increase was not significant | pIC50 [2]: 5.86 | Change of blood pressure [3, 7]: 1.3 ± 1.3 mmHg | Change of heart rate [3, 7]: 43.8 ± 6.7 beats/min | influence on heart rate (in words) ([3]; 300 mg/kg as printed): increased the heart rate | decrease in leg blood flow caused by ADP-added platelet suspension (in words) ([4]; 100 mg/kg): suppressed a decrease in the blood flow on the ligation side only slightly | Change in blood flow, control side [4, 8]: −27.0 ± 5.0 % | Change in blood flow, femoral artery ligation side [4, 8]: −63.3 ± 2.4 % | Lesion score 3 days later [5, 9]: 1.5 ± 0.3 | Lesion score 5 days later [5, 9]: 1.4 ± 0.4 | Lesion score 7 days later [5, 9]: 1.3 ± 0.4 | peripheral circulatory disturbance (in words) ([5]; 100 mg/kg, from one day after the lauric acid injection): significantly reduced the peripheral circulatory disturbance | Lesion score 1 day later [6, 10]: 1.8 ± 0.1 | Lesion score 3 days later [6, 10]: 2.2 ± 0.2 | Lesion score 5 days later [6, 10]: 1.8 ± 0.4 | Lesion score 7 days later [6, 10]: 2.2 ± 0.5 | peripheral circulatory disturbance (in words) ([6]; 100 mg/kg, prior to the lauric acid injection): significantly reduced the peripheral circulatory disturbance

Compound: O=C(N[C@H]1CCN(CCCc2ccc(Cl)cc2)C1)C12CC3CC(CC(C3)C1)C2 [Example 16, (S)-N-(1-(3-(4-chlorophenyl)propyl)pyrrolidin-3-yl)-1-adamantanecarboxamide]
melting point: 117 to 119 °C

Compound: O=C(N[C@H]1CCN(CCCCc2ccccc2)C1)C12CC3CC(CC(C3)C1)C2 [Example 17, (S)-N-(1-(4-phenylbutyl)pyrrolidin-3-yl)-1-adamantanecarboxamide]
melting point: 82 to 84 °C

Compound: O=C(N[C@H]1CCN(CCc2ccc(F)cc2)C1)C(C1CCCCC1)C1CCCCC1 [Example 26, (S)-N-(1-(2-(4-fluorophenyl)ethyl)pyrrolidin-3-yl)dicyclohexylacetamide]
melting point: 122 to 124 °C

Compound: O=C(N[C@@H]1CCN(CCc2ccccc2)C1)C12CC3CC(CC(C3)C1)C2 [Example 63, (R)-N-(1-(2-phenylethyl)pyrrolidin-3-yl)-1-adamantanecarboxamide]
melting point: 118 to 120 °C

Compound: COc1cccc(CCc2ccccc2OCC(CN(C)C)OC(=O)CCC(=O)O)c1 (stereo not drawn) [Sarpogrelate, reference compound]
volume of the erythrocyte passed, % of the vehicle group (erythrocytes; 100 mg/kg): 128% | Volume of erythrocytes passed (erythrocytes; 100 mg/kg oral 1 hour before drawing blood, 5 μm filter): 1.01 ± 0.10 mL/min | walking distance 8 days after administration (Δm) [1]: −151.3 ± 35.4 m | walking distance at day 8 of ligation (in words) [1]: increased the walking distance but the increase was not significant | pIC50 [2]: 6.59 | pIC50 (5-HT2 receptor): 7.57 | Lesion score 1 day later [5, 9]: 1.9 ± 0.2 | Lesion score 3 days later [5, 9]: 2.3 ± 0.3 | Lesion score 5 days later [5, 9]: 2.1 ± 0.5 | Lesion score 7 days later [5, 9]: 2.4 ± 0.6

Continued, values first:

melting point: 117 to 119 °C
Compound: O=C(Cc1ccccc1C1CCCC1)N[C@H]1CCN(CCc2ccccc2)C1 [Example 27, N-((S)-1-(2-phenylethyl)pyrrolidin-3-yl)-2-cyclopentylphenylacetamide]

melting point: 127 to 128 °C
Compound: O=C(N[C@H]1CCN(CCc2ccc(F)cc2)C1)C1=c2ccccc2=CC=C2CC=CC=C21 [Example 36, (S)-N-(1-(2-(4-fluorophenyl)ethyl)pyrrolidin-3-yl)dibenzo[a,d]cycloheptene-5-carboxamide]

melting point: 97 to 98 °C
Compound: O=C(N[C@H]1CCN(CCc2ccc(F)cc2)C1)N(C1CCCCC1)C1CCCCC1 [Example 48, (S)-1,1-dicyclohexyl-3-(1-(2-(4-fluorophenyl)ethyl)pyrrolidin-3-yl)urea]

melting point: 107 to 108 °C
Compound: O=C(N[C@H]1CCN(CCc2ccc(F)cc2)C1)n1c2ccccc2c2ccccc21 [Example 72, (S)-N-(1-(2-(4-fluorophenyl)ethyl)pyrrolidin-3-yl)carbazole-9-carboxamide]

melting point: 96 to 98 °C
Compound: O=C(N[C@H]1CCN(CCc2ccc(F)cc2)C1)C(c1cccs1)c1cccs1 [Example 73, (S)-2,2-di(2-thienyl)-N-(1-(2-(4-fluorophenyl)ethyl)pyrrolidin-3-yl)acetamide]

melting point: 107 to 108 °C
Compound: O=C(N[C@H]1CCN(CCc2ccc(F)cc2)C1)C(c1ccccc1F)c1ccccc1F [Example 74, (S)-2,2-bis(2-fluorophenyl)-N-(1-(2-(4-fluorophenyl)ethyl)pyrrolidin-3-yl)acetamide]

melting point: 108 to 110 °C
Compound: Cc1ccccc1C(C(=O)N[C@H]1CCN(CCc2ccc(F)cc2)C1)c1ccccc1C [Example 75, (S)-2,2-bis(2-methylphenyl)-N-(1-(2-(4-fluorophenyl)ethyl)pyrrolidin-3-yl)acetamide]
